{
  "source": "paper PMC3694611",
  "about": "(Journal of natural products, 2012)",
  "origin": "cited, not measured here",
  "key": {"[1]": {"tested_on": "Plasmodium falciparum", "details": "in words; ref [1a]"}, "[2]": {"details": "in words; ref [ii]"}},
  "data": [
    {"substance": "Gallinamide A", "values": [
      {"measurement": "activity against the malarial parasite Plasmodium falciparum", "setting": "[1]", "result": "moderately active"}
    ]},
    {"substance": "dolastatin-15", "values": [
      {"measurement": "anticancer potency", "setting": "[2]", "result": "exceedingly potent"}
    ]}
  ]
}
